Data on 16 compounds can be found in patent US8642611B2, “Alkynylpyrimidines and salts thereof, pharmaceutical compositions comprising same, methods of preparing same and uses of same” (Bayer Intellectual Property GmbH, priority 2007, dated 2014).

One test concerns the target T1, human Aurora-C (Homo sapiens, UniProt Q9UQB9).
T1 construct: GST; made in house; host or cells: transiently transfected HEK293 cells (the print adds '(Sf9)', which contradicts this)
T1 sequence (Q9UQB9 1-309): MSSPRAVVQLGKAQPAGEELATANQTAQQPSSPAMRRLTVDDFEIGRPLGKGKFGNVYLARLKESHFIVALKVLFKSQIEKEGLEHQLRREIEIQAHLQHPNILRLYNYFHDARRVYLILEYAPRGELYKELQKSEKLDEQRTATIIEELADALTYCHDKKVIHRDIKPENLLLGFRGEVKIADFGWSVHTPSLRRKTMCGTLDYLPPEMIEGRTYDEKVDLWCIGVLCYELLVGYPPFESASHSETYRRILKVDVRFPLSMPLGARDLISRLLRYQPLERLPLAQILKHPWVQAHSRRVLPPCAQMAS
The experiment in a line: Aurora-C Kinase Assay. The class given is biochemical. The settings on record: Aurora-C HTRF, 10 μM ATP; read-out: Aurora C activity (assay 7). The text has this:
Assay 7: Aurora-C Kinase Assay
Aurora-C inhibitory activity of compounds of the present invention was quantified employing the Aurora-C HTRF assay as described in the following paragraphs.
Recombinant fusion protein of GST and human Aurora-C was expressed in transiently transfected HEK293 cells […] and purified by Glutathion-Sepharose affinity chromatography. As substrate for the kinase reaction biotinylated peptide biotin-Ttds-FMRLRRLSTKYRT (C-terminus in amid form) was used which can be purchased e.g. form the company JERINI peptide technologies (Berlin, Germany). Aurora-C was incubated for 60 min at 22° C. in the presence of different concentrations of test compounds in 5 μl assay buffer [25 mM Hepes/NaOH pH 7.4, 0.5 mM MnCl2, 2.0 mM dithiothreitol, 0.1 mM sodium ortho-vanadate, 10 μM adenosine-tri-phosphate (ATP), […] substrate, 0.01% (v/v) TritonX-100 (Sigma), 0.05% (w/v) bovine serum albumin, 1% (v/v) dimethylsulfoxide]. The concentration of Aurora-C was adjusted depending of the activity of the enzyme lot and was chosen appropriate to have the assay in the linear range, typical concentrations were in the range of 0.3 nM. The reaction was stopped by the addition of 5 μl of a solution of HTRF detection reagents (0.2 μM streptavidine-XLent and 1.4 nM Anti-Phospho-(Ser/Thr) Akt substrate-Cryptate (C is biointernational, France, product no. 61PO2KAE), a labeled Phospho-(Ser/Thr) Akt substrate antibody [product #9611B, Cell Signaling Technology, Danvers, Mass., USA] labeled with Europium Cryptate, in an aqueous EDTA-solution (40 mM EDTA, 400 mM KF, 0.05% (w/v) bovine serum albumin in 25 mM HEPES/NaOH pH 7.0).
(§1) The resulting mixture was incubated 1 h at 22° C. to allow the binding of the biotinylated phosphorylated peptide to the streptavidine-XLent and the Anti-Phospho-(Ser/Thr) Akt substrate-Cryptate. Subsequently the amount of phosphorylated substrate was evaluated by measurement of the resonance energy transfer from the Prot-A-EuK to the streptavidine-XLent. Therefore, the fluorescence emissions at 620 nm and 665 nm after excitation at 350 nm was measured in a HTRF reader, e.g. a Rubystar (BMG Labtechnologies, Offenburg, Germany) or a Viewlux (Perkin-Elmer). The ratio of the emissions at 665 nm and at […] was taken as the measure for the amount of phosphorylated substrate. The data were normalised (enzyme reaction without inhibitor=0% inhibition, all other assay components but no enzyme=100% inhibition) and IC50 values were calculated by a 4 parameter fit using an inhouse software.

Another test has as its target T2, human KDR (Homo sapiens, UniProt P35968).
T2 construct: GST-tagged recombinant kinase domain of the human KDR; GST; made in house; host or cells: SF-9 insect cells
The experiment in a line: VEGFR2 Kinase (KDR) HTRF Assay. The class given is biochemical. The settings on record: GST-tagged kinase domain of human KDR, 10 μM ATP; read-out: KDR activity (assay 4).
Description: Assay 4: VEGFR2 Kinase (KDR) HTRF Assay
KDR inhibitory activity of compounds of the present invention was quantified employing the KDR HTRF assay as described in the following paragraphs.
GST-tagged recombinant kinase domain of the human KDR expressed in SF-9 cells was used as kinase. As substrate for the kinase reaction the biotinylated peptide biotin-Ahx-DFGLARDMYDKEYYSVG (C-terminus in acid form) was used which can be purchased e.g. form the company Biosynthan GmbH (Berlin-Buch, Germany). KDR was incubated for 45 min at 22° C. in the presence of different concentrations of test compounds in 5 μl assay buffer [50 mM Hepes/NaOH pH 7.0, 25 mM MgCl2, 5 mM MnCl2, 1.0 mM dithiothreitol, 0.1 mM sodium ortho-vanadate, 10 μM adenosine-tri-phosphate (ATP), 0.5 μM substrate, 0.001% (v/v) Nonidet-P40 (Sigma), 1% (v/v) dimethylsulfoxide]. The concentration of KDR was adjusted depending of the activity of the enzyme lot and was chosen appropriate to have the assay in the linear range. The reaction was stopped by the addition of 5 μL of a solution of HTRF detection reagents (0.1 μM streptavidine-XLent and 2 nM PT66-Eu-Chelate, an europium-chelate Labelled anti-phospho-tyrosine antibody from Perkin Elmer) in an aqueous EDTA-solution (125 mM EDTA, 0.2% (w/v) bovine serum albumin in 50 mM HEPES/NaOH pH 7.0).
as §1, with “PT66-Eu-Chelate.” for “Anti-Phospho-(Ser/Thr) Akt substrate-Cryptate.”, “PT66-Eu-Chelate” for “Prot-A-EuK”, “ViewLux” for “Viewlux”
For orientation: Time-resolved FRET reads energy transfer from a long-lived donor to a nearby acceptor.

T2 sequence (P35968 834-1162 limits assumed): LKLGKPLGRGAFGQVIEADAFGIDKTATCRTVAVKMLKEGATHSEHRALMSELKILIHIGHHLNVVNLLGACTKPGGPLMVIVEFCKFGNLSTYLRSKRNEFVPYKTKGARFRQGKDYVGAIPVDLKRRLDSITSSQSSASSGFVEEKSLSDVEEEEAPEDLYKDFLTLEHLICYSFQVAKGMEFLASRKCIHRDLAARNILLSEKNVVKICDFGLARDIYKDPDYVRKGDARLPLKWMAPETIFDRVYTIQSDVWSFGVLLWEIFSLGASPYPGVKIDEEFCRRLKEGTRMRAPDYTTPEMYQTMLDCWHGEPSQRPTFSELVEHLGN

In the case of `COc1ccc(C#Cc2cnc(Nc3ccc(S(C)(=N)=O)cc3)nc2N[C@H](C)CO)cc1` (mixture of isomers) [Example 1.1, (RS)—S-(4-[4-((R)-2-Hydroxy-1-methyl-ethylamino)-5-(4-methoxy-phenylethynyl)-pyrimidin-2-ylamino]-phenyl)-S-methylsulfoximide], the values for the IC50 at human Aurora-C and at human KDR were above 10 µM and below 0.5 µM, respectively.

Regarding `C[C@H](CO)Nc1nc(Nc2ccc(S(C)(=N)=O)cc2)ncc1C#Cc1ccccc1` (mixture of isomers) [Example 1.2, (RS)-S-(4-[4-((R)-2-Hydroxy-1-methyl-ethylamino)-5-(phenylethynyl)-pyrimidin-2-ylamino]-phenyl)-S-methylsulfoximide], the IC50 at human Aurora-C was above 10 µM; on human KDR, below 0.5 µM.

In the case of `CCc1ccc(C#Cc2cnc(Nc3ccc(S(C)(=N)=O)cc3)nc2N[C@H](C)CO)cc1` (mixture of isomers) [Example 1.8, (RS)-S-(4-[5-(4-Ethyl-phenylethynyl)-4-((R)-2-hydroxy-1-methyl-ethylamino)-pyrimidin-2-ylamino]-phenyl)-S-methylsulfoximide], the figures for the IC50 on human Aurora-C and on human KDR were above 10 µM and below 0.5 µM, respectively.

Turning to `C[C@H](CO)Nc1nc(Nc2ccc(S(C)(=N)=O)cc2)ncc1C#Cc1ccc(F)cc1` (mixture of isomers) [Example 1.9, (RS)-S-(4-[5-(4-Fluoro-phenyl-ethynyl)-4-((R)-2-hydroxy-1-methyl-ethylamino)-pyrimidin-2-ylamino]-phenyl)-S-methylsulfoximide], the IC50 was above 10 µM on human Aurora-C and below 0.5 µM on human KDR.

With `Cc1cc(C#Cc2cnc(Nc3ccc(S(C)(=N)=O)cc3)nc2N[C@H](C)CO)ccc1F` (mixture of isomers) [Example 1.13, (RS)-S-(4-[5-(4-Fluoro-3-methyl-phenyl-ethynyl)-4-((R)-2-hydroxy-1-methyl-ethylamino)-pyrimidin-2-ylamino]-phenyl)-S-methylsulfoximide], the IC50 is above 10 µM on human Aurora-C and below 0.5 µM at human KDR.

`CC(C)NC(=O)N=S(C)(=O)c1cccc(Nc2ncc(C#Cc3cccc(O)c3)c(N[C@H](C)CO)n2)c1` (mixture of isomers) [Example 1.15, (RS)-S-(3-[4-((R)-2-Hydroxy-1-methyl-ethylamino)-5-(3-hydroxy-phenylethynyl)-pyrimidin-2-ylamino]-phenyl)-N-(isopropylcarbamoyl)-S-methylsulfoximide]: the IC50 on human Aurora-C is above 10 µM; on human KDR it was below 0.5 µM.

For the compound `COc1ccc(C#Cc2cnc(Nc3cccc(S(C)(=N)=O)c3)nc2N[C@H](C)CO)cc1` (mixture of isomers) [Example 1.17, (RS)-S-(3-[4-((R)-2-Hydroxy-1-methyl-ethylamino)-5-(4-methoxy-phenylethynyl)-pyrimidin-2-ylamino]-phenyl)-S-methylsulfoximide], the IC50 is above 10 µM at human Aurora-C and below 0.5 µM at human KDR.

`C[C@H](CO)Nc1nc(Nc2cccc(S(C)(=N)=O)c2)ncc1C#Cc1cccc(O)c1` (mixture of isomers) [Example 1.18, (RS)-S-(3-[4-((R)-2-Hydroxy-1-methyl-ethylamino)-5-(3-hydroxy-phenylethynyl)-pyrimidin-2-ylamino]-phenyl)-S-methylsulfoximide]: the IC50 was above 10 µM at human Aurora-C and below 0.5 µM on human KDR.

For the compound `Cc1ccccc1C#Cc1cnc(Nc2cccc(S(C)(=N)=O)c2)nc1N[C@H](C)CO` (mixture of isomers) [Example 1.19, (RS)-S-(3-[4-((R)-2-Hydroxy-1-methyl-ethylamino)-5-(2-methyl-phenylethynyl)-pyrimidin-2-ylamino]-phenyl)-S-methylsulfoximide], the IC50 on human Aurora-C was above 10 µM; on human KDR, below 0.5 µM.

With `Cc1cc(C#Cc2cnc(Nc3cccc(S(C)(=N)=O)c3)nc2N[C@H](C)CO)ccc1F` (mixture of isomers) [Example 1.20, (RS)-S-(3-[5-(4-Fluoro-3-methyl-phenyl-ethynyl)-4-((R)-2-hydroxy-1-methyl-ethylamino)-pyrimidin-2-ylamino]-phenyl)-S-methylsulfoximide], the values for the IC50 at human Aurora-C and on human KDR were above 10 µM and below 0.5 µM, respectively.

`Cc1ccccc1C#Cc1cnc(Nc2ccc(S(C)(=N)=O)cc2)nc1N[C@H](C)CO` (mixture of isomers) [Example 1.3]: the IC50 on human Aurora-C was above 10 µM; on human KDR, below 0.5 µM.

For `Cc1ccc(C#Cc2cnc(Nc3ccc(S(C)(=N)=O)cc3)nc2N[C@H](C)CO)cc1` (mixture of isomers) [Example 1.5], the figures for the IC50 at human Aurora-C and at human KDR were above 10 µM and below 0.5 µM, respectively.

On to `CCNc1nc(Nc2ccc(S(C)(=N)=O)cc2)ncc1C#Cc1ccc(F)c(C)c1` (racemic) [Example 1.24, (RS)-S-(4-[4-ethylamino-5-(4-fluoro-3-methyl-phenyl-ethynyl)-pyrimidin-2-ylamino]-phenyl)-S-methylsulfoximide], for which the IC50 on human Aurora-C is 1 to 10 µM; at human KDR, below 0.5 µM.

As to `CCNc1nc(Nc2ccc(S(C)(=N)=O)cc2)ncc1C#Cc1ccc(OC)cc1` (racemic) [Example 1.26, (RS)-S-(4-[4-ethylamino-5-(4-methoxy-phenyl-ethynyl)-pyrimidin-2-ylamino]-phenyl)-S-methylsulfoximide], the IC50 at human Aurora-C was 1 to 10 µM; at human KDR, below 0.5 µM.

For `CCOC(=O)N=S(C)(=O)c1ccc(Nc2ncc(C#Cc3cccc(O)c3)c(N[C@H](C)CO)n2)cc1` (mixture of isomers) [Example 2.7], the IC50 at human Aurora-C is 1 to 10 µM; at human KDR, below 0.5 µM.

For `CS(=N)(=O)c1cccc(Nc2ncc(C#Cc3cccc(O)c3)cn2)c1` (racemic) [Example 4.2, (RS)—S-(3-[5-(3-hydroxy-phenylethynyl)-pyrimidin-2-ylamino]-phenyl)-S-methylsulfoximide], the IC50 on human Aurora-C is above 10 µM; on human KDR, below 0.5 µM.
